Data as given in patent US20260200905A1, “MICROBIOCIDAL TETRAHYDROISOQUINOLINE DERIVATIVES” (SYNGENTA CROP PROTECTION AG, priority 2022, published 2026).

Columns and labels:
[1] = test system: Mycosphaerella graminicola (Septoria tritici); assay: Mycosphaerella graminicola (Septoria tritici) / liquid culture (Septoria blotch); format: cell-based; settings: Zymoseptoria tritici, growth inhibition photometrically 4 to 5 days after application, read-out: control of Mycosphaerella graminicola
Description: (§1) Example B12: Mycosphaerella graminicola (Septoria tritici)/Liquid Culture (Septoria Blotch) Conidia of the fungus from cryogenic storage are directly mixed into nutrient broth (PDB potato dextrose broth). After placing a (DMSO) solution of test compound into a microtiter plate (96-well format), the nutrient broth containing the fungal spores is added. The test plates are incubated at 24° C. and the inhibition of growth is determined photometrically 4 to 5 days after application.

[2] = test system: Monographella nivalis (Microdochium nivale); assay: Monographella nivalis (Microdochium nivale) / liquid culture (foot rot cereals); format: cell-based; settings: growth inhibition photometrically 4 to 5 days after application, read-out: control of Monographella nivalis
Description: as §1, with “B5: Monographella nivalis (Microdochium nivale)/Liquid” for “B12: Mycosphaerella graminicola (Septoria tritici)/Liquid”, “(Foot Rot Cereals)” for “(Septoria Blotch)”

[3] = test system: Mycosphaerella arachidis (Cercospora arachidicola); assay: Mycosphaerella arachidis (Cercospora arachidicola) / liquid culture (early leaf spot); format: cell-based; settings: growth inhibition photometrically 4 to 5 days after application, read-out: control of Mycosphaerella arachidis
Description: as §1, with “B6:” for “B12:”, “arachidis (Cercospora arachidicola)/Liquid” for “graminicola (Septoria tritici)/Liquid”, “(Early Leaf Spot)” for “(Septoria Blotch)”

[4] = test system: Phaeosphaeria nodorum (Septoria nodorum); assay: Phaeosphaeria nodorum (Septoria nodorum) / wheat / leaf disc preventative (glume blotch); format: in vivo; settings: 200 ppm, compared to untreated control
Description: Example B4: Phaeosphaeria Nodorum (Septoria nodorum)/Wheat/Leaf Disc Preventative (Glume Blotch) Wheat leaf segments cv. Kanzler are placed on agar in a multiwell plate (24-well format) and sprayed with the formulated test compound diluted in water. The leaf disks are inoculated with a spore suspension of the fungus 2 days after application. The inoculated test leaf disks are incubated at 20° C. and 75% rh under a light regime of 12 h light/12 h darkness in a climate cabinet and the activity of a compound is assessed as percent disease control compared to untreated when an appropriate level of disease damage appears in untreated check leaf disks (5 to 7 days after application).

[5] = test system: Thanatephorus cucumeris (Rhizoctonia solani); assay: Thanatephorus cucumeris (Rhizoctonia solani) / liquid culture (foot rot, damping-off); format: cell-based; settings: 20 ppm, growth inhibition photometrically 3 to 4 days after application
Description: Example B11: Thanatephorus cucumeris (Rhizoctonia solani)/Liquid Culture (Foot Rot, Damping-Off) Mycelia fragments of a newly grown liquid culture of the fungus are directly mixed into nutrient broth (PDB potato dextrose broth). After placing a (DMSO) solution of the test compounds into a microtiter plate (96-well format), the nutrient broth containing the fungal material is added. The test plates are incubated at 24° C. and the inhibition of growth is determined photometrically 3 to 4 days after application.

Pythium ultimum = Pythium ultimum / liquid culture (seedling damping off); format: cell-based; settings: 20 ppm, growth inhibition photometrically 2 to 3 days after application
Description: Example B10: Pythium ultimum/Liquid Culture (Seedling Damping Off) Mycelia fragments and oospores of a newly grown liquid culture of the fungus are directly mixed into nutrient broth (PDB potato dextrose broth). After placing a (DMSO) solution of test compound into a microtiter plate (96-well format), the nutrient broth containing the fungal mycelia/spore mixture is added. The test plates are incubated at 24° C. and the inhibition of growth is determined photometrically 2 to 3 days after application.

Pyrenophora teres = Pyrenophora teres / barley / leaf disc preventative (net blotch); format: in vivo; settings: 200 ppm, compared to untreated control
Description: Example B9: Pyrenophora teres/Barley/Leaf Disc Preventative (Net Blotch) Barley leaf segments cv. Hasso are placed on agar in a multiwell plate (24-well format) and sprayed with the formulated test compound diluted in water. The leaf segments are inoculated with a spore suspension of the fungus 2 days after application. The inoculated leaf segments are incubated at 20° C. and 65% rh under a light regime of 12 h light/12 h darkness in a climate cabinet and the activity of a compound is assessed as disease control compared to untreated when an appropriate level of disease damage appears in untreated check leaf segments (5 to 7 days after application).

[6] = test system: Puccinia recondita f. sp. tritici; assay: Puccinia recondita f. sp. tritici / wheat / leaf disc curative (brown rust); format: in vivo; settings: 200 ppm, applied 1 day after inoculation
Description: Example B7: Puccinia recondita f. Sp. Tritici/Wheat/Leaf Disc Curative (Brown Rust) Wheat leaf segments cv. Kanzler are placed on agar in multiwell plates (24-well format). The leaf segments are inoculated with a spore suspension of the fungus. Plates are stored in darkness at 19° C. and 75% rh. The formulated test compound diluted in water is applied 1 day after inoculation. The leaf segments are incubated at 19° C. and 75% rh under a light regime of 12 h light/12 h darkness in a climate cabinet and the activity of a compound is assessed as percent disease control compared to untreated when an appropriate level of disease damage appears in untreated check leaf segments (6 to 8 days after application).

With O=C(c1cc(-c2ccc(F)cc2F)on1)N1Cc2ccccc2C(c2cncnc2)C1 (centres unmarked) [Compound P-4, [5-(2,4-difluorophenyl)isoxazol-3-yl]-(4-pyrimidin-5-yl-3,4-dihydro-1H-isoquinolin-2-yl)methanone] the inhibition of growth at 20 ppm [1] was ≥ 80%, the inhibition of growth at 20 ppm [2] was ≥ 80% and the inhibition of growth at 20 ppm [3] was ≥ 80%.
With Cn1nc(C2CN(C(=O)c3cc(-c4ccc(F)cc4F)on3)Cc3ccccc32)cc1Cl (centres unmarked) [Compound P-7, [4-(5-chloro-1-methyl-pyrazol-3-yl)-3,4-dihydro-1H-isoquinolin-2-yl]-[5-(2,4-difluorophenyl)isoxazol-3-yl]methanone] the “control of Phaeosphaeria nodorum” value [4] was “at least 80%”, the inhibition of growth at 20 ppm [1] was ≥ 80% and the inhibition of growth at 20 ppm [2] was ≥ 80%. The inhibition of growth at 20 ppm [3] was ≥ 80%.
O=C(c1cc(-c2ccc(F)cc2F)on1)N1Cc2ccccc2C(c2cnccn2)C1 (centres unmarked) [Compound P-8, [5-(2,4-difluorophenyl)isoxazol-3-yl]-(4-pyrazin-2-yl-3,4-dihydro-1H-isoquinolin-2-yl]methanone] was tested, and the inhibition of growth at 20 ppm [1] was ≥ 80%, the inhibition of growth at 20 ppm [2] was ≥ 80% and the inhibition of growth at 20 ppm [3] was ≥ 80%.
O=C(c1cc(-c2ccccc2)on1)N1Cc2ccccc2C(c2cccnc2)C1 (centres unmarked) [Compound P-6, (5-phenylisoxazol-3-yl)-[4-(3-pyridyl)-3,4-dihydro-1H-isoquinolin-2-yl]methanone] was tested, and the inhibition of growth at 20 ppm [1] was ≥ 80%, the inhibition of growth at 20 ppm [2] was ≥ 80% and the inhibition of growth at 20 ppm [3] was ≥ 80%.
With O=C(c1cc(-c2ccc(F)cc2F)on1)N1Cc2ccccc2C(c2ccncc2)C1 (centres unmarked) [Compound P-2, [5-(2,4-difluorophenyl)isoxazol-3-yl]-4-[4-(4-pyridyl)-3,4-dihydro-1H-isoquinolin-2-yl]methanone] the “control of Thanatephorus cucumeris” value [5] was “at least 80%”, the inhibition of growth at 20 ppm [1] was ≥ 80% and the inhibition of growth at 20 ppm [2] was ≥ 80%. For the same molecule, the “control of Pythium ultimum” value (Pythium ultimum) was “at least 80%”.
With O=C(c1cc(-c2ccc(F)cc2F)on1)N1Cc2c(F)cccc2C(c2cccnc2)C1 (centres unmarked) [Compound P-1, [5-(2,4-difluorophenyl)isoxazol-3-yl]-[8-fluoro-4-(3-pyridyl)-3,4-dihydro-1H-isoquinolin-2-yl]methanone] the inhibition of growth at 20 ppm [1] was ≥ 80%, the inhibition of growth at 20 ppm [2] was ≥ 80% and the “control of Pyrenophora teres” value (Pyrenophora teres) was “at least 80%”. For the same molecule, the inhibition of growth at 20 ppm [3] was ≥ 80%.
With Cc1c(C2CN(C(=O)c3cc(-c4ccc(F)cc4F)no3)Cc3ccccc32)cc(C#N)n1C (centres unmarked) [Compound P-19, 4-[2-[3-(2,4-difluorophenyl)isoxazole-5-carbonyl]-3,4-dihydro-1H-isoquinolin-4-yl]-1,5-dimethyl-pyrrole-2-carbonitrile] the “control of Puccinia recondita f sp. tritici” value [6] was “at least 80%” and the inhibition of growth at 20 ppm [1] was ≥ 80%.
Cc1ccc(C2CN(C(=O)c3cc(-c4ccc(F)cc4F)on3)Cc3ccccc32)cn1 (centres unmarked) [Compound P-3, [5-(2,4-difluorophenyl)isoxazol-3-yl]-[4-(6-methyl-3-pyridyl)-3,4-dihydro-1H-isoquinolin-2-yl]methanone] was tested, and the inhibition of growth at 20 ppm [1] was ≥ 80%, the inhibition of growth at 20 ppm [2] was ≥ 80% and the inhibition of growth at 20 ppm [3] was ≥ 80%.
